Data from patent publication US12102685B2, “Immodulator peptides covalently modified with small molecules” (priority 2020, dated 2024).
Marks after values point to notes of the source that are not given here. Square brackets hold non-standard residues; d marks the D form. Ends that are not written are not given here. Peptide text beside a SMILES is read from it. * marks the point of attachment. RG108 = O=C1c2ccccc2C(=O)N1[C@@H](Cc1c[nH]c2ccccc12)C(=O)*

Legend:
[1] = test system: COL1 in HFF-1 dermal fibroblasts; assay: Collagen-1 ELISA in HFF-1 dermal fibroblasts (x11A); type: cell-based; conditions: peptide 2 uM, 72 hour; control (buffer) = 100
Method: (§1) Immune modulation functions of immodulator peptides have potential untility in the field of cosmetics. HFF-1 cell line was obtained from American Type Culture Collection (ATCC). Cells were grown in a T-75 flask in DMEM Medium containing 10% fetal bovine serum and penicillin-streptomycin at 37° C. in a humidified, 5% CO2 incubator. Cells ([…], 2,000 cells/well) were plated in a 96-well plate and incubated overnight at 37° C. in a humidified, 5% CO2 incubator. Next day, […] of compounds were added (quadruplicate wells). After 72 hour incubation with the compound, supernatants were collected for Collagen-1 ELISA assay and cell viability was measured in a luminometer after the addition of […] CellTiterGlo reagent (Promega Inc, Madison, WI) as recommended by the manufacturer.
Collagen stimulating activity of immodulator peptides in HFF-1 dermal fibroblasts. Peptides were added to cells at 2 uM. COL1 immunoreactivity was measured in the supernatants of cultured cells by ELISA using a rabbit monoclonal anti-COL1 primary antibody (Abcam, Cambridge, MA). Control (buffer) value of immunoreactivity was set to 100.

[2] = Strength of binding to iron, plate assay (x2E b); conditions: 1 ug/well peptide complexed to Alexa-488-streptavidin; ferric iron
Method: Immodulator peptides were extended C-terminally by three amino acids, to include a valine residue that is highly conserved in the “thyroglobulin type 1 motif”. The reasoning behind this attempt is that a longer conserved sequence might lead to a tighter fold overall, which might in turn result in increased metal-binding avidity. • (b) Strength of binding to iron was evaluated by plate assay.
(§2) Experiments were conducted by the procedure described above. Ferric iron-charged NTA-coated 96-well plates were used as described. 1 ug/well immodulator peptide complexed to Alexa-488-labeled streptavidin in PBS buffer was added (60 min at room temperature). The plate was washed and counted in a standard fluorometer (excitation/emission: 485/525 nm). The results (fluorescence) show improved iron-binding by the three peptides extended C-terminally by the AVD, (dA)VD, and FVS tripeptides. **p<0.01 vs IM3 control IM3: 200±29; IM4: 45±37**; IM5: 130±77; IM3AVD: 434±29**; IM3dAVD: 418±28**; IM3FVS: 371±33** • (c) Competition assay. The same procedure was used as the preceding experiment, except that 375 ng/well labeled IM3 peptide was used, plus 10× of the indicated unlabeled peptide. ‘No competing peptide’ control value was set to 100. *p<0.05 vs “no peptide” control Competing Peptide/Fluorescence • None: 100±38; IM4: 125±26; IM3: 63±27*; IM5: 40±14*; IM3AVD: 10±28* • (d) Competition assay. The same procedure was used as the preceding experiment, except that labeled IM3AVD peptide was used. **p<0.01 vs “no competing peptide” control • None: 100±9; IM4: 144±44; IM3: 35±16**; IM5: 30±19**; IM3AVD: 9±19** • (e) The same procedure was used as the preceding experiment, except that each peptide was labeled with Alexa-488-labeled streptavidin in PBS buffer and used separately. Binding to IM3 was set to =100. *p<0.05, **p<0.01 vs IM3 control. (Labeled Peptide/Fluorescence) IM1: 1.8±0.4**; IM2: 3.0±1.8**; IM3: 100.0±16.8; IM4: 7.2±1.7*; IM5: 86.7±6.4; IM6: 85.9±14.9; IM3AVD:137.7±11.8*; IM3dAVD:147.4±22.9*; IM3FVS: 101.5±10.5.

[3] = Iron binding of separately labeled peptides (x2E e); conditions: each peptide labeled separately; IM3 = 100; ferric iron
Method: as §2

[4] = Competition binding assay to metal-charged NTA-coated plates (x2B b); conditions: PBS on calcium = 100
Method: NTA-metal-affinity fluorescence assay was performed using 96-well NTA-metal-coated plates readily available from commercial sources such as Qiagen (Germantown, MD). NTA was charged with ferrous or ferric iron, zinc, copper, calcium, vanadium, ruthenium, cobalt, titanium, manganese or other metals. 400 ng of FITC-labeled immodulator peptide (or biotinylated immodulator peptide complexed to Alexa-488-labeled streptavidin) in PBS buffer was added per plate. After incubation at room temperature for 60 minutes, excess peptide was washed off and peptide was detected by measuring fluorescence (excitation 490 nm, emmission 525 nm) in a fluorometer. • (a) Using FITC-labeled IM3 peptide (1 ug/well) in the fluorescent binding assay: • EDTA-treated control: 2,251±1,186 • Ferrous iron: 170,441±11,264 (p<0.001)* • Copper: 13,644±5566 (p<0.05)* • Calcium: 48,822±11,990 (p<0.01)* • *p values are relative to EDTA-treated control • (b) Competition binding assay to ferrous iron, calcium, copper and zinc-charged NTA-coated plates using FITC-labeled IM3 peptide (0.5 uM) and 8× (4 uM) unlabelled competitor peptides IM3N1, IM3N2 (*all comparisons to PBS control are p<0.01); # fluorescent value of binding to […] was set at 100.

STING = assay: THP1-Dual monocyte reporter, STING readout (x4A); type: cell-based; conditions: no peptide
Method: (§3) Immune modulation functions of immodulator peptides were measured using the monocyte reporter cell line THP1-Dual (Invivogen, San Diego, CA), which provides convenient readouts for STING and NF-kappa-B pathways. Optionally, succinic acid, cytokine and chemokine production were also measured. THP1-Dual cell line was obtained from Invivogen. Cells were grown in a T-75 flask in RPMI Medium containing 20% fetal bovine serum, blasticidin ([…]), zeocin ([…]) and penicillin-streptomycin at 37° C. in a humidified, 5% CO2 incubator. Cells ([…], 8,000 cells/well) were plated in a 96-well plate and incubated overnight at 37 °C in a humidified, 5% CO2 incubator. Next day, […] of compounds were added (quadruplicate wells). After 24 hour incubation with the compound, supernatants were harvested and stored at 4° C. prior to assay.
(§4) Each cell supernatant was assayed in quadruplicate. 20 uL of supernatant was used to measure NF-kappa-B (NFkB) and
(§5) STING activity using reagents QuantiBlu and QuantiLuc respectively, according to the manufacturer's recommendations (Invivogen, San Diego, CA). Succinic acid was measured by using a kit from Megazyme Inc (Cambridge, MA). Control value of activity was set to 100 in each assay. […] PAM3C=25 ng/ml PAM3CSK4 (TLR1/2 inducer); Poly(I:C)=10 ug/ml (TLR3 inducer); PAM2C=25 ng/ml PAM2CSK4 (TLR2/6 inducer); KIN14=4 uM KIN-1400 (RIG-I inducer); cytB=1 uM cytosporone B (Nur77 inducer); C-178=1 uM STING inhibitor; NFkBi=50 ug/ml NFkB inhibitor peptide; SB2021=10 uM p38MAPK inhibitor; *p<0.05, **p<0.01 vs IM3 control; #p<0.01 vs “no inducer” control; SUCC=succinic acid; nd=not done; Peptide was added to cells at 400 nM.
(§6) Peptides were added to cells at 400 nM. […]

THP1-Dual monocytes = assay: Succinic acid in THP1-Dual supernatant (x4A); type: cell-based; conditions: no peptide
Method: as §3, §5, §6

NF-kappa-B (NFkB) = assay: THP1-Dual monocyte reporter, NF-kappa-B readout (x4A); type: cell-based; conditions: no peptide
Method: as §3, §4, §5, §6

A375 cells = assay: A375 cell viability, CellTiterGlo (x10A); type: cell-based; conditions: 72 hours
Method: as §1, with “have great” for “have”, “of cancer. A375” for “of cosmetics. HFF-1”, “(ATCC). They” for “(ATCC). Cells”, “compound,” for “compound, supernatants were collected for Collagen-1 ELISA assay and”
Experiment x10A. Anti-cancer activity of immodulator peptides on A375 cells. A 96-well plate was seeded with 2,000 A375 cells per well in DMEM medium containing 10% FBS and PenStrep. After 24 hrs at 37 deg C., compounds and peptides were added (each treatment done in quadruplicate). After a further 72 hours incubation, 100 uL/well of CTG assay reagent purchased from Promega Inc. (Madison, WI) was added. Plate was read after 10 minutes, as recommended by the manufacturer. Peptides were added at 2 uM. The results of this experiment are shown below, expressed as percent survival ofA375 cells.

[5] = KIN1400 alone, IM3 + KIN1400 = 100
[6] = 25 ng/ml PAM3CSK4 alone, control = 100
[7] = 25 ng/ml PAM2CSK4 alone, IM3 + PAM2C = 100

In the case of “AFNSYELGSKGFYKKKQCRPSKGRKRGFCWAVDKY [IM3K9c]”, the “COL1 immunoreactivity in supernatant” value [1] is reported as 158**.
In the case of `CC(C)[C@H](NC(=O)[C@H](Cc1ccccc1)NC(=O)[C@H](Cc1c[nH]c2ccccc12)NC(=O)[C@H](CS)NC(=O)[C@H](Cc1ccccc1)NC(=O)CNC(=O)[C@H](CCCNC(=N)N)NC(=O)[C@H](CCCCN)NC(=O)[C@H](CCCNC(=N)N)NC(=O)CNC(=O)[C@H](CCCCN)NC(=O)[C@H](CO)NC(=O)[C@@H]1CCCN1C(=O)[C@H](CCCNC(=N)N)NC(=O)[C@H](CS)NC(=O)[C@H](CCC(N)=O)NC(=O)[C@H](CCCCN)NC(=O)[C@H](CCCCN)NC(=O)[C@H](CCCCN)NC(=O)[C@H](Cc1ccc(O)cc1)NC(=O)[C@H](Cc1ccccc1)NC(=O)CNC(=O)[C@H](CCCCN)NC(=O)[C@@H](N)CCCCN)C(=O)N[C@@H](CO)C(=O)O` [IM3FVS] (H-KKGFYKKKQCRPSKGRKRGFCWFVS-OH; N-terminus and C-terminus assumed), the “fluorescence (iron binding)” value [2] is reported as 371±33 and the “fluorescence of labeled peptide” value [3] is reported as 101.5±10.5.
In the case of AFNSYELGSKGFYKKKQCRPSKGRKRGFCW [IM3K9], the “COL1 immunoreactivity in supernatant” value [1] is reported as 155**.
For “AFNSYELGSKKGFYKKKQCRPSKGRKRGFCW [IM3K9.1]”, the “COL1 immunoreactivity in supernatant” value [1] was 156**.
For “TGPSESYLQLEELVKQVVSKGFYKKKQCRPSKGRKRGFCW [IM3N2]”, the “FITC-IM3 fluorescence with competitor” value ([4]; Calcium, 0.5 uM FITC-IM3, 8x (4 uM) unlabelled competitor) was 12.9 ± 1.2*, the “FITC-IM3 fluorescence with competitor” value ([4]; Copper, 8x (4 uM) unlabelled competitor) was 5.1 ± 1.0* and the “FITC-IM3 fluorescence with competitor” value ([4]; Ferrous iron, 8x (4 uM) unlabelled competitor) was 25.2 ± 9.5*. The “FITC-IM3 fluorescence with competitor” value ([4]; Zinc, 8x (4 uM) unlabelled competitor) was 13.4 ± 1.6*.
In the case of “KKGFYKKKQCRPSKGRKRGFCW(dA)VD (KKGFYKKKQCRPSKGRKRGFCW[dA]VD; cysteine pairing not given here) [IM3dAVD, IM3 extended C-terminally by (dA)VD]”, the “fluorescence (iron binding)” value [2] is reported as 418±28 and the “fluorescence of labeled peptide” value [3] is reported as 147.4±22.9.
With `Oc1c(C(Nc2nc3ccccc3s2)c2ccc(OC(F)F)cc2)ccc2cccnc12` (centres unmarked) [KIN1400, KIN-1400, reference compound] the STING (STING; [5]) was 84.3**, the SUCC (THP1-Dual monocytes; [5]) was 100.1 and the NFkB (NF-kappa-B (NFkB); KIN1400 (RIG-I agonist) alone, IM3 + KIN1400 = 100) was 90.1. The “percent survival of A375 cells” value (A375 cells; Kin1400 4 uM alone, no peptide) was 100.7%.
For “(rg108)-KKGFYKKKQCRPSKGRKRGFCW (RG108-KKGFYKKKQCRPSKGRKRGFCW; cysteine pairing not given here) [IM3rg8, IM3 N-terminally conjugated with RG108]”, the “percent survival of A375 cells” value (A375 cells; peptide 2 uM + Kin1400 4 uM (RIG-I agonist)) was 105.8% and the “percent survival of A375 cells” value (A375 cells; peptide 2 uM, Buffer) was 89.9** percent.
In the case of PAM3CSK4 [reference compound], the STING (STING; [6]) is reported as 342 # and the NFkB (NF-kappa-B (NFkB); [6]) is reported as 326 #.
For PAM2CSK4 [reference compound], the STING (STING; [7]) was 144.5**, the SUCC (THP1-Dual monocytes; [7]) was 121.5* and the NFkB (NF-kappa-B (NFkB); [7]) was 118.7**.
With FNSYELGSLKKGFYKKKQCRPSKGRKRGFCW [IM3K8] the “COL1 immunoreactivity in supernatant” value [1] was 98.
